{"source": "patent US20020183279A1", "about": "“Pharmaceutical composition containing viscoelastic substance and medication” (Koichiro TANAKA, priority 2001, published 2002)", "system": "Bacillus substilis (ATCC6633)", "experiment": "Inhibition circle (penicillin cup) measurement of antimicrobial activity changed by viscoelastic substance", "type": "cell-based, Bacillus subtilis", "procedure": "The activity of an antimicrobial agent changes depending upon a type of viscoelastic substance. Such a change was measured by using Bacillus substilis (ATCC6633 referred to as “B subtilis”) and the following viscoelastic substances: First, B. subtilis (0.1 mL of 1.4×10^8 CFU/ML) was spread on a 4% heart infusion medium. Subsequently, a penicillin cup was placed on the medium, and a test solution was poured in the cup. As test solutions, the following groups were used. 0.1 mL of an antimicrobial agent was added to a penicillin cup. Five concentrations from […] were prepared for each antimicrobial agent; 0.1 mL of a viscoelastic substance was added to a penicillin cup; After 0.1 mL of a viscoelastic substance was added to a penicillin cup and allowed to stand still and then 0.1 mL of 5 or 2.5 μg/mL antimicrobial agent was gently added to the viscoelastic substance layer; and 0.1 mL of a viscoelastic substance and 0.1 mL of 5 or 2.5 μg/mL antimicrobial agent were mixed and added to a penicillin cup. Each group was cultured in an incubator at 35° C. for 24 hours. The size of the inhibition circle of B. subtilis was measured. Based on the measurement results of the single antimicrobial agent group, a curve showing the size of inhibition circle versus the antimicrobial agent concentration (referred to as a standard curve) was obtained with respect to individual antimicrobial agents.", "data": [{"compound": "CCn1cc(C(=O)O)c(=O)c2cc(F)c(N3CCNCC3)cc21", "note": "[NFLX, norfloxacin]", "values": [{"measurement": "activity of the antimicrobial agent compared to the standard curve", "setting": "layered group: NFLX layered on HL, OP or VC", "result": "lower than the standard"}, {"measurement": "antimicrobial activity, ranking among viscoelastic substances", "setting": "layered group: NFLX layered on VC", "result": "lowest"}, {"measurement": "bacterial proliferation suppression activity compared to the standard curve", "setting": "mixture group: NFLX mixed with HL, OP or VC, FIG. 5", "result": "lower than values of the standard curve but not so significant"}]}]}
